In one test the test system is NIH 3T3 Per2-dLuc cells. Put plainly: Real-time monitoring of circadian rhythm, NIH 3T3 Per2-dLuc. Format: cell-based. The conditions noted are these: dose dependent. The procedure: Luminescence values were recorded at 32° C. for each 30 minutes with 15 seconds integration time via Synergy H1 luminometer for a week. For LumiCycle, 400×10^3 U2-OS Bmal1-dLuc or NIH3T3 mPer2-dLuc cells were seeded to 35 mm plates and then procedure given above was followed with a change in the last step. Plates were sealed with vacuum grease and placed to LumiCycle. Each plate was recorded continuously every 10 minutes for 70 seconds at 37° C. via photomultiplier tubes. Period and amplitude data were obtained from LumiCycle Analysis software. To detect the effect of FORMULA I in the absence of CRYs, Cry1^−/−/Cry2^−/− mouse embryonic fibroblasts (CRYDKO MEFs) transiently transfected with pGL3-Per2-Luc (luciferase reporter) were used. 3×10^5 CRYDKO cells were seeded in 35 mm clear plates. Next day, cells were transfected with 4000 ng pGL3-Per2-Luc via Fugene6 transfection reagent according to the manufacturer's instruction. In short, 3:1 ratio of Fugene6 in μl against transfected DNA amount in μg was kept in transfections. 72 h after transfection cells were synchronized with DXM for two hours. Then, medium was changed with lumicycle medium having DMSO or molecule, sealed with vacuum grease, and placed to LumiCycle.

The target of the next test is T1, CRY1 (Homo sapiens, UniProt Q16526).
T1 construct: To evaluate the effect of FORMULA I on the endogenous protein and mRNA level of clock genes; endogenous in cells; host or cells: U2-OS
T1 sequence (Q16526 1-586): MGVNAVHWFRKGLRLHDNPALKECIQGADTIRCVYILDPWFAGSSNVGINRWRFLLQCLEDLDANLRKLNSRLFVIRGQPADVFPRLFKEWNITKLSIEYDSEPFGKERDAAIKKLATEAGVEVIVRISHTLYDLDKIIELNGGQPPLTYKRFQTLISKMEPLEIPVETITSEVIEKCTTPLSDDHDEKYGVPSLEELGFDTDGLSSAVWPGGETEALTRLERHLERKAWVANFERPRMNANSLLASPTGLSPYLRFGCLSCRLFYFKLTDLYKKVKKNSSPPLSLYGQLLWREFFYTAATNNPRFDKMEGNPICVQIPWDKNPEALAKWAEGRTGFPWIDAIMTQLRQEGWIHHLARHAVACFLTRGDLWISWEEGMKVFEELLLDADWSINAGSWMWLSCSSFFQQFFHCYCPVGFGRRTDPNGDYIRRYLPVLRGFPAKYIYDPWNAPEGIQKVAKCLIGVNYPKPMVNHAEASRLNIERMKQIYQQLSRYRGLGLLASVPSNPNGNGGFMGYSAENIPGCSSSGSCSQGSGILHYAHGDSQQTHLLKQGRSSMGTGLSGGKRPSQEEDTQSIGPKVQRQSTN
The test can be described thus: Protein immunoblot, synchronized U2-OS cells, CRY1. Format: cell-based. Conditions: 10 μM, 80-92 h. Here is the method:
FIGS. 3A-3G are an illustration of FORMULA I decreased CRY1 level in synchronized U2-OS cells. Confluent U2-OS cells were synchronized by 2 h treatment with dexamethasone ([…]) and medium replaced with fresh medium containing FORMULA I or solvent (DMSO final 0.5%). Cells were harvested at indicated time points. FIGS. 3A-3B show lysed cells were analyzed via protein immunoblot technique. […] CRY levels in DMSO control divided by that of in FORMULA I treated samples were reported (mean±SEM, n=4). FIGS. 3C-3G show cells were subjected to reverse-transcription-quantitative polymerase chain reaction (RT-qPCR). […] Expression level of genes was normalized according to the expression level of that gene at 72ndh. (Data represent the mean±SEM, n=3 with duplicates ***: p<0.001 **: p<0.005, *: p<0.05 versus DMSO control by two-way ANOVA).
Cells were lysed in RIPA buffer (50 mM Tris, 150 mM NaCl, 1% Triton-X, 0.1% SDS) with fresh Protease inhibitor cocktail (PIC). After centrifugation at 13000 rpm for 15 minutes at 4° C., supernatant was used to determine the protein amount using Pierce Protein Assay (Thermo Scientific) according to the manufacturer's instruction. Mice liver samples were homogenized and lysed with Dounce homogenizer and RIPA buffer. […] ECL buffer system (Advansta WesternBright) was used to visualize HRP chemi-luminescence via BioRad ChemiDoc Touch visualizer. […]

As to `Cc1c(C(=O)N2CCc3ccccc32)oc2ccc3c(c12)C(=O)CC(C)(c1ccc(Cl)cc1)O3` (centres unmarked) [FORMULA I, 11-(4-chlorophenyl)-4-(2,3-dihydro-1H-indole-1-carbonyl)-3,11-dimethyl-5,10,dioxatricyclo[7.4.0.0,2,6,]trideca-1,3,6,8-tetraen-13-one], the “effect on circadian rhythm” value with NIH 3T3 Per2-dLuc cells is given as “exhibited similar phenotype”. For the same compound, the CRY1 protein level result at CRY1 is on record as “decreased the protein level of CRY1”.

The values are drawn from US20230104487A1, “11-(4-CHLOROPHENYL)-4-(2,3-DIHYDRO-1H-INDOLE-1-CARBONYL)-3,11-DIMETHYL-5,10,DIOXATRICYCLO[7.4.0.0,2,6,]TRIDECA-1,3,6,8-TETRAEN-13-ONE AND DERIVATIVES AS DESTABILIZER OF CRY1 FOR THE TREATMENT OF CIRCADIAN RHYTHM ASSOCIATED DISEASES AND DISORDERS” (KOC UNIVERSITESI, priority 2019, published 2023).
